The source of these data is patent publication US6887997B2, “9H-imidazo[1,2-a]purin-9-one compounds” (Yung Shin Pharmaceutical Ind. Co., Ltd., priority 2001, dated 2005).

Structures are written as SMILES.

As for `O=c1c2ncn(COCCO)c2nc2[nH]c(-c3ccc(Cl)s3)cn12` [compound 2, 3-(2-Hydroxy-ethoxymethyl)-6-(5-chloro-thiophen-2-yl)-3,5-dihydro-1,3,4,5,7a-pentaaza-s-indacen-8-one], the melting point was in the range of 226 to 228 °C.
